From patent publication US12558345B2, “CHK1/2 inhibitors for use in the treatment of neuroblastomas and/or soft tissue sarcomas” (Eli Lilly and Company, priority 2015, dated 2026)
Where a name gives a salt, the structure may show the parent alone.

Assays:
[1] = system: Calu-6 lung tumor xenograft; assay: Human Tumor Xenograft Models, with gemcitabine: Calu-6; type: in vivo, mouse
Description: The ability of CHK1 inhibitors to effect tumor killing can be determined in vivo using the Calu-6 lung and HT-29 colon tumor xenograft efficacy models. Calu-6 lung cancer cells (ATCC) are cultured in growth media (MEM w/ Earle's salts (Invitrogen) with L-glutamine (Gibco™) supplemented with 10% (v/v) heat inactivated FBS (Gibco™), 1×MEM non-essential amino acids (Gibco™), 1×sodium pyruvate (Gibco™)) and HT-29 colon cancer cells (ATCC) are cultured in growth media, (McCoy's 5A medium (Gibco™) supplemented with 10% FBS (Gibco™)) and expanded. Cells are harvested and washed twice with phosphate buffered saline and 5×10^6 cells (HT-29) or 1×10^6 cells (Calu-6) in growth media (without serum) are mixed with equal volume of BD Matrigel™ matrix (BD Bioscience, Franklin, NJ), then injected subcutaneously into the flank of nude mice (CD-1 nu/nu, from Charles River Labs, Wilmington, MA). At about day 16 after implant (150-200 mm^3), gemcitabine is formulated fresh in saline daily and administered to animals by intraperitoneal route at 60 mg/kg dose. […] Tumor response is determined by tumor volume measurement performed twice a week during the course of treatment. Tumor growth inhibition (TGI) is calculated as the percent reduction in mean tumor size of a compound treated group from the mean tumor size of the vehicle-treated control group.

Calu-6 lung xenograft = assay: Single Agent Efficacy Dosing, Calu-6 xenograft; type: in vivo, mouse; settings: Calu-6, 15 mg/kg SC, BID×5 rest 2 days ×3 cycles
Description: The ability of CHK1 inhibitors to effect tumor killing can be determined in vivo using the Calu-6 lung xenograft efficacy model. Calu-6 lung cancer cells (ATCC) are cultured as described above. Cells are harvested and washed twice with phosphate buffered saline and 1×10^6 cells (Calu-6) in growth media (without serum) are mixed with equal volume of BD Matrigel™ matrix (BD Bioscience, Franklin, NJ), then injected subcutaneously into the flank of nude mice (CD-1 nu/nu, from Charles River Labs, Wilmington, MA).

[2] = system: CTG-0142 EWS patient-derived xenograft; assay: Xenograft Tumor Model CTG-0142; type: in vivo, mouse; settings: comparator day 28, p-value 0.376
Description: (§1) The efficacy of 5-(5-(2-(3-aminopropoxy)-6-methoxyphenyl)-1H-pyrazol-3-ylamino)pyrazine-2-carbonitrile methanesulfonic acid monohydrate is measurable in vivo in mouse models of neuroblastomas and human pediatric and adult sarcomas. 5-(5-(2-(3-Aminopropoxy)-6-methoxyphenyl)-1H-pyrazol-3-ylamino)pyrazine-2-carbonitrile methanesulfonic acid monohydrate (10 mg/kg) can be administered subcutaneously to nude mice bearing either cell-derived xenografts (CDX) or patient-derived xenografts (PDX) of human rhabdomyosarcoma, desmoplastic small round cell tumor (DSRCT), osteosarcoma, and Ewing's sarcoma using a 3 day on, 4 day off b.i.d. dosing schedule. Tumor volume and body weight can be measured two times per week. Tumor-specific parameters can be evaluated by immumohistochemistry. […]
(§2) For all “ST” models (encompassing RMS and LMS), patient-derived xenografts are established from viable human tumor tissue and are serially passaged in animals a limited number of times to maintain tumor heterogeneity. […] Tumor response is determined by tumor volume measurement performed twice per week during the course of treatment.

[3] = system: CTG-0241 OS patient-derived xenograft; assay: Xenograft Tumor Model CTG-0241; type: in vivo, mouse; settings: comparator day 28, p-value 0.019
Description: as §1, §2

[4] = system: CTG-0785 EWS patient-derived xenograft; assay: Xenograft Tumor Model CTG-0785; type: in vivo, mouse; settings: comparator day 18, p-value 0.052
Description: as §1, §2

[5] = system: CTG-0816 EWS patient-derived xenograft; assay: Xenograft Tumor Model CTG-0816; type: in vivo, mouse; settings: comparator day 28, p-value 0.069
Description: as §1, §2

[6] = system: CTG-0926 DSRCT patient-derived xenograft; assay: Xenograft Tumor Model CTG-0926; type: in vivo, mouse; settings: comparator day 28, p-value <0.001
Description: as §1, §2

[7] = system: CTG-0994 EWS patient-derived xenograft; assay: Xenograft Tumor Model CTG-0994; type: in vivo, mouse; settings: comparator day 25, p-value <0.001
Description: as §1, §2

[8] = system: CTG-1213 RMS patient-derived xenograft; assay: Xenograft Tumor Model CTG-1213; type: in vivo, mouse
Description: as §1, §2

[9] = system: ST550 LMS patient-derived xenograft; assay: Xenograft Tumor Model ST550; type: in vivo, mouse; settings: comparator day 31, p-value 0.712
Description: (§3) For all “ST” models (encompassing RMS and LMS), patient-derived xenografts are established from viable human tumor tissue and are serially passaged in animals a limited number of times to maintain tumor heterogeneity. In subcutaneous models, athymic nude mice (Crl:NU(NCr)-Foxn1nu) or CB-17 SCID mice (CRL-CB17/Icr-Prkdcscid/IcrIcoCrl) are injected or implanted unilaterally into the flank with tumor fragments harvested from host animals, each implanted from a specific passage lot. For all studies, measure tumor growth and body weight twice per week beginning on the seventh day after implantation. When tumor size reaches 150-300 mm^3, randomize animals and group into groups of 4-7 animals. Prepare test compound in an appropriate vehicle (e.g. vehicle can be 20% Captisol® in sterile water) and administer subcutaneously for three consecutive days followed by a four day dosing holiday and repeat for a minimum of four weeks. Tumor response is determined by tumor volume measurement performed twice per week during the course of treatment.

[10] = system: ST1547 LMS patient-derived xenograft; assay: Xenograft Tumor Model ST1547; type: in vivo, mouse; settings: comparator day 28, p-value <0.001
Description: as §3

DSRCT xenograft models = assay: Sarcoma xenograft models by tumor subtype: DSRCT; type: in vivo, mouse
Description: (§4) The efficacy of 5-(5-(2-(3-aminopropoxy)-6-methoxyphenyl)-1H-pyrazol-3-ylamino)pyrazine-2-carbonitrile methanesulfonic acid monohydrate is measurable in vivo in mouse models of neuroblastomas and human pediatric and adult sarcomas. 5-(5-(2-(3-Aminopropoxy)-6-methoxyphenyl)-1H-pyrazol-3-ylamino)pyrazine-2-carbonitrile methanesulfonic acid monohydrate (10 mg/kg) can be administered subcutaneously to nude mice bearing either cell-derived xenografts (CDX) or patient-derived xenografts (PDX) of human rhabdomyosarcoma, desmoplastic small round cell tumor (DSRCT), osteosarcoma, and Ewing's sarcoma using a 3 day on, 4 day off b.i.d. dosing schedule. Tumor volume and body weight can be measured two times per week. Tumor-specific parameters can be evaluated by immumohistochemistry.
(§5) For all “CTG” models (encompassing human RMS, DSRCT, EWS, OS and LMS patient-derived xenograft models), female NCr nude spontaneous mutant mice (5-8 weeks old, Taconic) are implanted unilaterally in the flank region with tumor fragments harvested from donor animals, each implanted from a specific passage lot.
as §3

[11] = system: Liposarcoma xenograft models; assay: Sarcoma xenograft models by tumor subtype: Liposarcoma; type: in vivo, mouse; settings: age of patients 36-74 years
[12] = system: pediatric sarcoma in vivo mouse models; assay: Pediatric tumor / pediatric sarcoma in vivo mouse models (panel)
Description: as §4, §5
For all “ST” models (encompassing RMS and LMS), patient-derived xenografts are established from viable human tumor tissue and are serially passaged in animals a limited number of times to maintain tumor heterogeneity. In subcutaneous models, athymic nude mice (Crl:NU(NCr)-Foxn1nu) or CB-17 SCID mice (CRL-CB17/Icr-Prkdcscid/IcrIcoCrl) are injected or implanted unilaterally into the flank with tumor fragments harvested from host animals, each implanted from a specific passage lot. For all studies, measure tumor growth and body weight twice per week beginning on the seventh day after implantation. When tumor size reaches 150-300 mm^3, randomize animals and group into groups of 4-7 animals. […] Tumor response is determined by tumor volume measurement performed twice per week during the course of treatment.

[13] = results ranging from stable disease to complete response

`COc1cccc(OCCCN)c1-c1cc(Nc2cnc(C#N)cn2)n[nH]1` [Example 2, 5-(5-(2-(3-Aminopropoxy)-6-methoxyphenyl)-1H-pyrazol-3-ylamino)pyrazine-2-carbonitrile dihydrogen chloride salt] was tested, and the “increase in tumor growth inhibition over gemcitabine alone” value ([1]; Calu-6, combination with gemcitabine) was “up to a six-fold increase”, the anti-tumor activity ([1]; Calu-6, dosed alone and in combination with gemcitabine 60 mg/kg ip, compound iv +24 hours, Q3Dx4) was “excellent dose dependent anti-tumor activity” and the “growth inhibition compared with gemcitabine plus compound combination schedule” value (Calu-6 lung xenograft) was “superior growth inhibition”. For the same molecule, the tumor regression (Calu-6 lung xenograft) was “Complete tumor regression is rapid and durable”.

With `COc1cccc(OCCCN)c1-c1cc(Nc2cnc(C#N)cn2)n[nH]1` [Example 5, 5-(5-(2-(3-Aminopropoxy)-6-methoxyphenyl)-1H-pyrazol-3-ylamino)pyrazine-2-carbonitrile methanesulfonic acid monohydrate] the “% T/C” value [2] was 66%, the “% T/C” value [3] was 48% and the “% T/C” value [4] was 57%. For the same molecule, the “% T/C” value [5] was 44%, the “% Regression” value [6] was −76% and the “% Regression” value [7] was −79%. For the same molecule, the “% T/C” value ([8]; comparator day 18, p-value 0.004) was 18%, the “% Regression” value ([8]; comparator day 36, p-value <0.001) was −65% and the “% T/C” value [9] was 94%. For the same molecule, the “% T/C” value [10] was 5%, the “Result of Treatment: Complete Response (models)” value (DSRCT xenograft models; DSRCT, age of patients 20 years) was 1/1 Complete and the “tumor response when re-challenged” value (DSRCT xenograft models; PDX model of DSRCT, after regrowth) was “tumor regression”. For the same molecule, the “time post-treatment at which tumor growth is observed” value (DSRCT xenograft models; PDX model of DSRCT, upon cessation of therapy) was 50 days, the “tumor response in a PDX model of DSRCT” value (DSRCT xenograft models; following four dosing cycles) was “complete regression” and the “Result of Treatment: Progressive Disease (models)” value [11] was 7/7 Progressive. For the same molecule, the “pediatric tumor models with strong single agent activity” value ([12]; ranging from stable disease to complete regression, 10 mg/kg SC, 3 day on, 4 day off b.i.d.) was 7/13, the “pediatric sarcoma in vivo mouse models in which effective as a single agent (models)” value [12, 13] was 7/17 and the “pediatric sarcoma in vivo mouse models in which effective as a single agent (percent)” value [12, 13] was about 41%.
